Source: US9497963B2, “Methods and compositions for control of gypsy moth, Lymantria dispar” (Simon Fraser University, priority 2008, dated 2016)
“Also recorded” adds a separate entry of the source. Like-named read-outs stand apart in the source and are kept apart here.

What was measured:
Parameters in all cases: species or system Lymantria dispar
[1] = test system: response of L. dispar antennae to (+)-disparlure; experiment: Competitive electroantennogram (EAG) screen, inhibition of response to (+)-disparlure (Example 4); conditions: for inhibition at 0.001 mg / inhibition at 0.01 mg / inhibition at 0.1 mg: Lymantria dispar, means ± S.E.; for inhibition at 0.001 mg: dose 1 μg on cartridge; for inhibition at 0.01 mg: dose 10 μg on cartridge; for inhibition at 0.1 mg: dose 100 μg on cartridge
Experimental: In this assay, libraries and individual compounds are tested for their ability to inhibit the antennal response to the sex attractant pheromone of the gypsy moth, (7R,8S) 2-methyl-7,8-epoxyoctadecane, also known as (+)-disparlure. The controls consisted of a puff of clean air (negative) or of air passed over a cartridge impregnated with (+)-disparlure (100 ng) (positive). The treatments consisted of 100 ng of (+)-disparlure in combination with a compound or library at 1, 10 or 100 μg, on a cartridge over which the air puff was passed. The small arrows above the trace denote the times where the air was puffed over the antenna.
For some compounds, such as the para Compounds 2c{n}, 2c{n,n} and libraries 3c{n,1-5}, EAG competitive assays were performed to investigate whether the diethers inhibit the response of L. dispar antennae to the main component of the sex attractant pheromone cis-(7R,8S)-epoxy-2-methyloctadecane [(+)-disparlure] (FIG. 4). For EAGs a male moth antenna was mounted and placed in front of a stimulus-delivery glass tubing (160×5 mm ID) with a side orifice (2 mm diam) near (2 cm) the distal opening. The tubing was connected to one port of an apparatus (Stimulus Controller CS-05, Syntech Research and Equipment, NL-1200BM Hilversum, The Netherlands) that generated a constant stream of clean air (300 ml/min). The second port of the apparatus was connected to a Pasteur pipette inserted through the side orifice of the stimulus-delivery tubing. The test stimulus was applied to a disc of Whatman #1 filter paper inside the Pasteur pipette and was discharged through a 0.3-sec pulse of air (600 ml/min) Receptor potentials of the antennae in response to test stimuli were recorded with a Syntech IDAC probe, amplifier and interfaced board, and were analyzed with EAG Syntech Software Version 2.4 (1996) Inhibition (%) was calculated as: % inhibition=(Dd−Ds)/Dd×100 (eq. 1)
Where Dd is the depolarization observed with pure disparlure (corrected for clean air background) and Ds is the depolarization with disparlure+sample. See FIG. 4 for a representative EAG inhibition assay trace.

[2] = test system: male gypsy moth antenna response to pheromone (+)-1; experiment: EAG short-term (STI) and long-term (LTI) inhibition of pheromone signaling (Example 5); conditions: for inhibition at 0.001 mg / inhibition at 0.01 mg / inhibition at 0.1 mg / inhibition at 100 µg, 0.1 mg: Lymantria dispar, mean ± S.E.; for inhibition at 0.001 mg: mixed plume (+)-1 100 ng + compound 1 μg; for inhibition at 0.001 mg / inhibition at 0.01 mg / inhibition at 0.1 mg: negative = enhancement, read-out: Activity (%): short-term inhibition (STI); for inhibition at 0.01 mg: mixed plume (+)-1 100 ng + compound 10 μg; for inhibition at 0.1 mg: mixed plume (+)-1 100 ng + compound 100 μg (puff v); for inhibition at 100 µg, 0.1 mg: pure (+)-1 100 ng plume following mixed plume with 100 μg compound, read-out: Activity (%): long-term inhibition (LTI)
Summary of the method: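 Excised male gypsy moth antenna in saline pH 6.8 under purified air (300 mL/min); 0.3 s puffs: air, (+)-1 100 ng, (+)-1 plus compound 1, 10, 100 μg per cartridge, then (+)-1 alone. STI: mixed-puff air-corrected depolarization loss versus first pheromone puff; LTI: final pheromone-puff loss.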

[3] = test system: male gypsy moth antenna response to mixed pheromone/modulator plume; experiment: EAG peak broadening (PB) (Example 11); conditions: for activity (% peak broadening): mixed plume, 100 μg compound and 100 ng pheromone (puff v vs puff ii)
Experimental: A mixed pheromone/modulator plume could elicit a prolonged response (FIG. 1A, puff v; FIG. 2), and this was termed peak broadening (PB). PB was calculated from the EAG traces as follows: PB=100×(Δtv−Δtii)/Δtii
Where Δt was the width of the EAG peak (in s) from the start of the depolarization to the return to background potential.

| SMILES | inhibition at 0.001 mg [1] | inhibition at 0.01 mg [1] | inhibition at 0.1 mg [1] | inhibition at 0.001 mg [2] | inhibition at 0.01 mg [2] | inhibition at 0.1 mg [2] | inhibition at 100 µg, 0.1 mg [2] | activity (% peak broadening) [3] | peak broadening / prolongation of the EAG signal (in words) ([3]; 1:1000 ratios) | long-term inhibition (LTI) activity (in words) [2] | long-term inhibition (LTI) activity (in words) ([2]; listed as 3c{2, 3}) | inhibitory activity on antennal pheromone responses (in words) [1] |
| --- | --- | --- | --- | --- | --- | --- | --- | --- | --- | --- | --- | --- |
| COc1ccc(OC)cc1 [3c{1,1}, 1,4-Dimethoxy benzene] | 4 ± 6% | -8 ± 9% | 38 ± 7% | 24 ± 8% | 23 ± 9% | 15 ± 25% | -7 ± 10% | 77 ± 12% |  |  |  |  |
| CCCOc1ccc(OC)cc1 [3c{1,3}, 1-methoxy-4-propoxy-benzene] |  |  |  | 28 ± 16% | -2 ± 5% | 48 ± 14% | 39 ± 12% | 175 ± 23% | significant prolongation of the EAG signal; also recorded: strongest peak broadening compound |  |  |  |
| CCOc1ccc(OCC)cc1 [3c{2,2}, 1,4-Diethoxy benzene] | 4 ± 13% | 45 ± 6% | -3 ± 13% | 7 ± 12% | -19 ± 8% | -27 ± 15% | 17 ± 11% | 71 ± 30% |  |  |  |  |
| CCCOc1ccc(OCC)cc1 [3c{2,3}, 1-ethoxy-4-propoxy benzene] |  |  |  | 8 ± 20% | -30 ± 10% | -62 ± 50% | 58 ± 7% | 94 ± 24% |  | strongest long-term inhibitor | most active |  |
| CCCOc1ccc(OCCC)cc1 [3c{3,3}, 1,4-Dipropoxy benzene] | 5 ± 16% | 55 ± 7% | -3 ± 15% | -3 ± 13% | -60 ± 38% | -100 ± 40% | 29 ± 13% |  |  |  |  | moderate inhibitory activity |
| CC(C)CCOc1ccc(OCCC(C)C)cc1 [3c{5,5}, 1,4-Di-(3-methyl-butyloxy) benzene] | 63 ± 12% | 38 ± 22% | 64 ± 11% | 41 ± 14% | 4 ± 26% | 50 ± 9% | 7 ± 4% |  |  |  |  | moderate inhibitory activity |
